Consider two compounds from patent US9481646B2, “Low calcemic, highly antiproliferative, analogs of calcitriol” (The Johns Hopkins University, priority 2007, dated 2016).

Broadly, the IC50 is the midpoint of a concentration-inhibition curve.

The nature of data set [1]: in vivo calciuric activity, calcium levels in rat urine. The conditions noted are these: relative activity (A = 1).
The target of another data set is T1, human recombinant VDR (Homo sapiens, UniProt P11473).
T1 construct: purchased Biomol SE-140
T1 sequence (P11473 1-427): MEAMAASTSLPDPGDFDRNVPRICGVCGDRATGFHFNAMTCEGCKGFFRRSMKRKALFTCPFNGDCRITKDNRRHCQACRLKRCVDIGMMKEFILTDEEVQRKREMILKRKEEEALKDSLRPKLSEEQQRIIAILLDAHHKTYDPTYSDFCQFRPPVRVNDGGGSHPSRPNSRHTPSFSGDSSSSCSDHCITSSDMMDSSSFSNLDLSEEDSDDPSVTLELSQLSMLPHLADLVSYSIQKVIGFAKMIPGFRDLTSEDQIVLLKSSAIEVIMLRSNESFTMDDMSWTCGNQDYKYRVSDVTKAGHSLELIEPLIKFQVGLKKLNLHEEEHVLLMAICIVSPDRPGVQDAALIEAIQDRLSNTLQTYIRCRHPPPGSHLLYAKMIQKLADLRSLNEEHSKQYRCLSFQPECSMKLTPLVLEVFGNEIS
Description: competitive binding to the human VDR.

A further data set has as its system murine keratinocytes. Nature of the data set: antiproliferative activity in murine keratinocytes (standard in vitro protocol). It counts as cell-based. The settings on record: Mus musculus, Keratinocyte, read-out: Antiproliferative IC50.

For the compound `C=C1/C(=C\C=C2/CCC[C@]3(C)[C@@H]([C@H](C)COCC4=CCCCC4(C)C)CC[C@@H]23)C[C@@H](O)C[C@@H]1O` [Analog 1d], the “Calciuria Activity Compared to 1” value in data set [1] was less than 0.02. Moreover, the values for the IC50 at human recombinant VDR and in the data set with murine keratinocytes were 0.3 µM and 0.05 µM, respectively.
In the case of `C=C1/C(=C\C=C2/CCC[C@]3(C)[C@@H]([C@H](C)CCCC(C)(C)O)CC[C@@H]23)C[C@@H](O)C[C@@H]1O` [A, 1α,25-dihydroxyvitamin D3, reference compound], in data set [1], the “Calciuria Activity Compared to 1” value is 1. In the data set on murine keratinocytes, the IC50 was 0.08 µM.
